Assay results reported in EP4707280A1, “1,4-CINEOLE DERIVATIVE AND INTERMEDIATE THEREOF, HERBICIDE CONTAINING SAID DERIVATIVE AS ACTIVE INGREDIENT, METHOD FOR USING HERBICIDE, AND METHOD FOR PREPARING AGROCHEMICAL COMPOSITION” (HOKKO CHEMICAL INDUSTRY CO., LTD., priority 2023, dated 2024).

Legend:
Format in all cases: in vivo
Digitaria ciliaris [1] = experiment: Test Example 4: herbicidal effect test by stem and leaf treatment in upland field; conditions: Digitaria ciliaris; 120 g per 10 ares; sprayed seven days after sowing, upland soil; 14 days after application; read-out: weed inhibition rate
Echinochloa crus-galli [2] = experiment: as above; conditions: Echinochloa crus-galli; 120 g per 10 ares; sprayed seven days after sowing, upland soil; 14 days after application; read-out: weed inhibition rate
Digitaria ciliaris [3] = experiment: Test Example 8: herbicidal effect test by stem and leaf treatment in upland field (low dose); conditions: Digitaria ciliaris; 7.5 g per 10 ares; sprayed seven days after sowing, upland soil; 14 days after application; read-out: weed inhibition rate
Echinochloa crus-galli [4] = experiment: as above; conditions: Echinochloa crus-galli; 7.5 g per 10 ares; sprayed seven days after sowing, upland soil; 14 days after application; read-out: weed inhibition rate
Digitaria ciliaris [5] = experiment: Test Example 7: herbicidal effect test by soil application in upland field (low dose); conditions: Digitaria ciliaris, 7.5 g per 10 ares, sprayed one day after sowing, 14 days after application, read-out: weed inhibition rate
In short: (§1)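 Upland alluvial loam pots, seeds mixed into top 1 cm of soil; one day after sowing, diluted emulsifiable concentrate sprayed on soil at 100 L/10 a, giving 7.5 g active ingredient/10 a. Duplicate pots; weed inhibition rate (%) scored 14 days after application.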

Echinochloa crus-galli [6] = experiment: as above; conditions: Echinochloa crus-galli, 7.5 g per 10 ares, sprayed one day after sowing, 14 days after application, read-out: weed inhibition rate
In short: as §1

Digitaria ciliaris [7] = experiment: Test Example 3: herbicidal effect test by soil application in upland field; conditions: Digitaria ciliaris, 120 g per 10 ares, sprayed one day after sowing, 14 days after application, read-out: weed inhibition rate
In short: (§2)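 Weed inhibition (%) was assessed 14 days after treatment, in duplicate per concentration group. Seeds had been mixed into the upper 1 cm of upland alluvial loam, and the soil surface was sprayed one day later with the diluted emulsifiable concentrate at 120 g active ingredient per 10 ares.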

Echinochloa crus-galli [8] = experiment: as above; conditions: Echinochloa crus-galli, 120 g per 10 ares, sprayed one day after sowing, 14 days after application, read-out: weed inhibition rate
In short: as §2

[9] = system: Echinochloa crus-galli var. formosensis; experiment: Test Example 1: herbicidal effect test by soil application in paddy rice; conditions: Echinochloa crus-galli, soil, 336 h; 120 g active ingredient per 10 ares; applied immediately after sowing, flooded pots; 14 days after application; read-out: weed inhibition rate
In short: (§3)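 Pre-emergence paddy soil application, 120 g a.i./10 a, emulsifiable concentrate diluted in water, applied by dropper right after sowing. Seeds (30/species) sown 0–1 cm in puddled, fertilized soil; flooded ~3 cm; glass greenhouse.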

Scirpus juncoides [10] = experiment: as above; conditions: Schoenoplectiella juncoides, soil, 336 h; 120 g active ingredient per 10 ares; applied immediately after sowing, flooded pots; 14 days after application; read-out: weed inhibition rate
In short: as §3

[11] = system: Echinochloa crus-galli var. formosensis; experiment: Test Example 2: herbicidal effect test by application during growth period of paddy rice; conditions: Echinochloa crus-galli; 120 g per 10 ares; applied seven days after sowing, flooded pots; 14 days after application; read-out: weed inhibition rate
In short: (§4)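 Paddy soil in flooded pots (water depth about 3 cm) was sown with weed seeds and kept in a glass greenhouse. Seven days after sowing, a diluted emulsifiable concentrate was applied by dropper at 120 g active ingredient per 10 ares. Weed inhibition was evaluated 14 days after application, in duplicate.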

Scirpus juncoides [12] = experiment: as above; conditions: Schoenoplectiella juncoides; 120 g per 10 ares; applied seven days after sowing, flooded pots; 14 days after application; read-out: weed inhibition rate
In short: as §4

[13] = system: Echinochloa crus-galli var. formosensis; experiment: Test Example 5: herbicidal effect test by soil application in paddy rice (low dose); conditions: Echinochloa crus-galli, soil, 336 h; 7.5 g per 10 ares; applied immediately after sowing, flooded pots; 14 days after application; read-out: weed inhibition rate
In short: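 Paddy-soil pots, weeds sown 0–1 cm deep and flooded to about 3 cm in a greenhouse. Emulsifiable concentrate diluted in water and dropped in right after sowing at 7.5 g active ingredient per 10 ares. Duplicates; effect scored 14 days after application.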

[14] = system: Echinochloa crus-galli var. formosensis; experiment: Test Example 6: herbicidal effect test by application during growth period of paddy rice (low dose); conditions: Echinochloa crus-galli; 7.5 g per 10 ares; applied seven days after sowing, flooded pots; 14 days after application; read-out: weed inhibition rate
In short: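 Emulsifiable concentrate, water-diluted, dropped onto flooded paddy pots 7 days post-sowing at 7.5 g active ingredient/10 a. Greenhouse-grown weeds; percent inhibition scored at day 14 after treatment.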

CC(C)C12CC(OCc3ccccc3C#N)C(C)(CC1I)O2 (stereo not shown) [1-1436, 2-[(5-iodo-1-methyl-4-isopropyl-7-oxabicyclo[2.2.1]heptan-2-yl)oxymethyl]benzonitrile]
≥ 80%: inhibition at 1200 g/ha (Digitaria ciliaris [1]) | inhibition at 1200 g/ha (Echinochloa crus-galli [2]) | inhibition at 75 g/ha (Digitaria ciliaris [3]) | inhibition at 75 g/ha (Echinochloa crus-galli [4]) | inhibition at 75 g/ha (Digitaria ciliaris [5]) | inhibition at 75 g/ha (Echinochloa crus-galli [6]) | inhibition at 1200 g/ha (Digitaria ciliaris [7]) | inhibition at 1200 g/ha (Echinochloa crus-galli [8]) | pest or weed control at 1200 g/ha [9] | pest or weed control at 1200 g/ha (Scirpus juncoides [10]) | inhibition at 1200 g/ha [11] | inhibition at 1200 g/ha (Scirpus juncoides [12]) | inhibition at 75 g/ha [13] | inhibition at 75 g/ha [14]

CC(C)C12CC(OCc3ccsc3)C(C)(CC1Cl)O2 (stereo not shown) [1-1324, 2-chloro-1-isopropyl-4-methyl-5-(3-thienylmethoxy)-7-oxabicyclo[2.2.1]heptane]
≥ 80%: inhibition at 1200 g/ha (Digitaria ciliaris [1]) | inhibition at 1200 g/ha (Echinochloa crus-galli [2]) | inhibition at 75 g/ha (Digitaria ciliaris [3]) | inhibition at 75 g/ha (Echinochloa crus-galli [4]) | inhibition at 75 g/ha (Digitaria ciliaris [5]) | inhibition at 75 g/ha (Echinochloa crus-galli [6]) | inhibition at 1200 g/ha (Digitaria ciliaris [7]) | inhibition at 1200 g/ha (Echinochloa crus-galli [8]) | pest or weed control at 1200 g/ha [9] | pest or weed control at 1200 g/ha (Scirpus juncoides [10]) | inhibition at 1200 g/ha [11] | inhibition at 1200 g/ha (Scirpus juncoides [12]) | inhibition at 75 g/ha [13] | inhibition at 75 g/ha [14]

CO[C@H]1C[C@]2(C)O[C@@]1(C(C)C)C[C@H]2OCc1ccccc1 [1-150, (1R,2S,4S,5R)-5-benzyloxy-1-isopropyl-2-methoxy-4-methyl-7-oxabicyclo[2.2.1]heptane]
≥ 80%: inhibition at 1200 g/ha (Digitaria ciliaris [1]) | inhibition at 1200 g/ha (Echinochloa crus-galli [2]) | inhibition at 75 g/ha (Digitaria ciliaris [3]) | inhibition at 75 g/ha (Echinochloa crus-galli [4]) | inhibition at 75 g/ha (Digitaria ciliaris [5]) | inhibition at 75 g/ha (Echinochloa crus-galli [6]) | inhibition at 1200 g/ha (Digitaria ciliaris [7]) | inhibition at 1200 g/ha (Echinochloa crus-galli [8]) | pest or weed control at 1200 g/ha [9] | pest or weed control at 1200 g/ha (Scirpus juncoides [10]) | inhibition at 1200 g/ha [11] | inhibition at 1200 g/ha (Scirpus juncoides [12]) | inhibition at 75 g/ha [13] | inhibition at 75 g/ha [14]

CC(C)[C@]12C[C@@H](OCc3ccccc3)[C@](C)(C[C@@H]1I)O2 [1-740, (1R,2S,4S,5R)-5-benzyloxy-2-iodo-1-isopropyl-4-methyl-7-oxabicyclo[2.2.1]heptane]
≥ 80%: inhibition at 1200 g/ha (Digitaria ciliaris [1]) | inhibition at 1200 g/ha (Echinochloa crus-galli [2]) | inhibition at 75 g/ha (Digitaria ciliaris [3]) | inhibition at 75 g/ha (Echinochloa crus-galli [4]) | inhibition at 75 g/ha (Digitaria ciliaris [5]) | inhibition at 75 g/ha (Echinochloa crus-galli [6]) | inhibition at 1200 g/ha (Digitaria ciliaris [7]) | inhibition at 1200 g/ha (Echinochloa crus-galli [8]) | pest or weed control at 1200 g/ha [9] | pest or weed control at 1200 g/ha (Scirpus juncoides [10]) | inhibition at 1200 g/ha [11] | inhibition at 1200 g/ha (Scirpus juncoides [12]) | inhibition at 75 g/ha [13] | inhibition at 75 g/ha [14]

CC(C)=CCO[C@@H]1C[C@]2(C(C)C)O[C@@]1(C)C[C@@H]2Cl [1-612, (1R,2S,4S,5R)-2-chloro-1-isopropyl-4-methyl-5-(3-methylbut-2-enoxy)-7-oxabicyclo[2.2.1]heptane]
≥ 80%: inhibition at 1200 g/ha (Digitaria ciliaris [1]) | inhibition at 1200 g/ha (Echinochloa crus-galli [2]) | inhibition at 75 g/ha (Digitaria ciliaris [3]) | inhibition at 75 g/ha (Echinochloa crus-galli [4]) | inhibition at 75 g/ha (Digitaria ciliaris [5]) | inhibition at 75 g/ha (Echinochloa crus-galli [6]) | inhibition at 1200 g/ha (Digitaria ciliaris [7]) | inhibition at 1200 g/ha (Echinochloa crus-galli [8]) | pest or weed control at 1200 g/ha [9] | pest or weed control at 1200 g/ha (Scirpus juncoides [10]) | inhibition at 1200 g/ha [11] | inhibition at 1200 g/ha (Scirpus juncoides [12]) | inhibition at 75 g/ha [13] | inhibition at 75 g/ha [14]

CC(C)C12CC(OCc3c(F)cccc3Br)C(C)(CC1I)O2 (stereo not shown) [1-1612, 5-[(2-bromo-6-fluoro-phenyl)methoxy]-2-iodo-1-isopropyl-4-methyl-7-oxabicyclo[2.2.1]heptane]
≥ 80%: inhibition at 1200 g/ha (Digitaria ciliaris [1]) | inhibition at 1200 g/ha (Echinochloa crus-galli [2]) | inhibition at 75 g/ha (Digitaria ciliaris [3]) | inhibition at 75 g/ha (Echinochloa crus-galli [4]) | inhibition at 75 g/ha (Digitaria ciliaris [5]) | inhibition at 75 g/ha (Echinochloa crus-galli [6]) | inhibition at 1200 g/ha (Digitaria ciliaris [7]) | inhibition at 1200 g/ha (Echinochloa crus-galli [8]) | pest or weed control at 1200 g/ha [9] | pest or weed control at 1200 g/ha (Scirpus juncoides [10]) | inhibition at 1200 g/ha [11] | inhibition at 1200 g/ha (Scirpus juncoides [12]) | inhibition at 75 g/ha [13] | inhibition at 75 g/ha [14]

CC(C)[C@]12C[C@@H](OCc3c(F)cccc3Cl)[C@](C)(C[C@@H]1I)O2 [1-780, (1R,2S,4S,5R)-5-[(2-chloro-6-fluoro-phenyl)methoxy]-2-iodo-1-isopropyl-4-methyl-7-oxabicyclo[2.2.1]heptane]
≥ 80%: inhibition at 1200 g/ha (Digitaria ciliaris [1]) | inhibition at 1200 g/ha (Echinochloa crus-galli [2]) | inhibition at 75 g/ha (Digitaria ciliaris [3]) | inhibition at 75 g/ha (Echinochloa crus-galli [4]) | inhibition at 75 g/ha (Digitaria ciliaris [5]) | inhibition at 75 g/ha (Echinochloa crus-galli [6]) | inhibition at 1200 g/ha (Digitaria ciliaris [7]) | inhibition at 1200 g/ha (Echinochloa crus-galli [8]) | pest or weed control at 1200 g/ha [9] | pest or weed control at 1200 g/ha (Scirpus juncoides [10]) | inhibition at 1200 g/ha [11] | inhibition at 1200 g/ha (Scirpus juncoides [12]) | inhibition at 75 g/ha [13] | inhibition at 75 g/ha [14]

CC(C)C12CC(OCc3ccccc3Cl)C(C)(CC1Cl)O2 (stereo not shown) [1-1292, 5-chloro-2-[(2-chlorophenyl)methoxy]-1-methyl-4-isopropyl-7-oxabicyclo[2.2.1]heptane]
≥ 80%: inhibition at 1200 g/ha (Digitaria ciliaris [1]) | inhibition at 1200 g/ha (Echinochloa crus-galli [2]) | inhibition at 75 g/ha (Digitaria ciliaris [3]) | inhibition at 75 g/ha (Echinochloa crus-galli [4]) | inhibition at 75 g/ha (Digitaria ciliaris [5]) | inhibition at 75 g/ha (Echinochloa crus-galli [6]) | inhibition at 1200 g/ha (Digitaria ciliaris [7]) | inhibition at 1200 g/ha (Echinochloa crus-galli [8]) | pest or weed control at 1200 g/ha [9] | pest or weed control at 1200 g/ha (Scirpus juncoides [10]) | inhibition at 1200 g/ha [11] | inhibition at 1200 g/ha (Scirpus juncoides [12]) | inhibition at 75 g/ha [13] | inhibition at 75 g/ha [14]
